Laboratory results reported in patent US8338565B2, “Macrocyclic compounds for inhibition of tumor necrosis factor alpha” (Ensemble Therapeutics Corporation, priority 2008, dated 2012).
Numbered stars: 1 amine (or outer) side, 2 acyl side, 3 side chain; on linkers, the order of the positions; unused ones are H or OH. Bridge positions count the residues as written; N and C are the ends. Square brackets hold non-standard residues; d marks the D form. Peptide text beside a SMILES is read from it. Bip = N[C@@H](Cc1ccc(-c2ccccc2)cc1)C(=O)O; Phe(4-NH2) = Nc1ccc(C[C@H](N)C(=O)O)cc1; d(hPhe) = N[C@H](CCc1ccccc1)C(=O)O; Suc = O=C(CCC(=O)[*:2])[*:1]

How the values were obtained:
rat paw edema model [1] = assay: Rat paw edema model (carrageenan), anti-inflammatory activity; type: in vivo, Sprague-Dawley (SD) rats; conditions: Table 10; 3.0 mg/kg PO; 2 h post-carrageenan
rat paw edema model [2] = assay: as above; type: in vivo, Sprague-Dawley (SD) rats

## O=C1CCC(=O)N[C@H](CCc2ccccc2)C(=O)N[C@@H](Cc2ccc(-c3ccccc3)cc2)C(=O)N[C@H](Cc2ccccc2)C(=O)N[C@H](C(=O)N[C@@H](Cc2ccccc2)C(=O)O)Cc2ccc(cc2)N1 [Compound 202] ([d(hPhe)][Bip][dF][Phe(4-NH2)]F-OH; linker N-4 via Suc)
Rat paw edema model [1]
  Change in Paw Volume: 1.25 ± 0.08 mL
Rat paw edema model [2]; Table 3, 0.3 mg/kg IV, 2 h post-carrageenan
  Change in Paw Volume: 0.42 ± 0.20 mL
Rat paw edema model [2]; Table 3, 0.3 mg/kg IV, 4 h post-carrageenan
  Change in Paw Volume: 1.01 ± 0.31 mL
Rat paw edema model [2]; Table 3, 0.3 mg/kg IV, 6 h post-carrageenan
  Change in Paw Volume: 1.16 ± 0.20 mL
Rat paw edema model [2]; Table 9, 0.05 mg/kg IV, 2 h post-carrageenan
  Change in Paw Volume: 1.20 ± 0.09 mL
Rat paw edema model [2]; Table 9, 0.05 mg/kg IV, 4 h post-carrageenan
  Change in Paw Volume: 1.56 ± 0.22 mL
Rat paw edema model [2]; Table 9, 0.05 mg/kg IV, 6 h post-carrageenan
  Change in Paw Volume: 1.67 ± 0.18 mL
Rat paw edema model [2]; Table 9, 0.1 mg/kg IV, 2 h post-carrageenan
  Change in Paw Volume: 0.99 ± 0.15 mL
Rat paw edema model [2]; Table 9, 0.1 mg/kg IV, 4 h post-carrageenan
  Change in Paw Volume: 1.41 ± 0.26 mL
Rat paw edema model [2]; Table 9, 0.1 mg/kg IV, 6 h post-carrageenan
  Change in Paw Volume: 1.62 ± 0.19 mL
Rat paw edema model [2]; Table 9, 0.3 mg/kg IV, 2 h post-carrageenan
  Change in Paw Volume: 0.70 ± 0.13 mL
Rat paw edema model [2]; Table 9, 0.3 mg/kg IV, 4 h post-carrageenan
  Change in Paw Volume: 1.09 ± 0.06 mL
Rat paw edema model [2]; Table 9, 0.3 mg/kg IV, 6 h post-carrageenan
  Change in Paw Volume: 1.15 ± 0.12 mL
Rat paw edema model [2]; Table 9, 1.0 mg/kg IV, 2 h post-carrageenan
  Change in Paw Volume: 0.60 ± 0.04 mL
Rat paw edema model [2]; Table 9, 1.0 mg/kg IV, 4 h post-carrageenan
  Change in Paw Volume: 0.98 ± 0.08 mL
Rat paw edema model [2]; Table 9, 1.0 mg/kg IV, 6 h post-carrageenan
  Change in Paw Volume: 1.14 ± 0.05 mL
Rat paw edema model [2]; Table 9, 10 mg/kg PO (suspension in Vehicle A), 2 h post-carrageenan
  Change in Paw Volume: 1.12 ± 0.15 mL
Rat paw edema model [2]; Table 9, 10 mg/kg PO (suspension in Vehicle A), 4 h post-carrageenan
  Change in Paw Volume: 1.35 ± 0.27 mL
Rat paw edema model [2]; Table 9, 10 mg/kg PO (suspension in Vehicle A), 6 h post-carrageenan
  Change in Paw Volume: 1.42 ± 0.22 mL
Rat paw edema model [2]; Table 10, 0.3 mg/kg PO, 2 h post-carrageenan
  Change in Paw Volume: 1.49 ± 0.14 mL
Rat paw edema model [2]; Table 10, 0.3 mg/kg PO, 4 h post-carrageenan
  Change in Paw Volume: 1.59 ± 0013 mL
Rat paw edema model [2]; Table 10, 0.3 mg/kg PO, 6 h post-carrageenan
  Change in Paw Volume: 1.65 ± 0.10 mL
Rat paw edema model [2]; Table 10, 1.0 mg/kg PO, 2 h post-carrageenan
  Change in Paw Volume: 1.43 ± 0.18 mL
Rat paw edema model [2]; Table 10, 1.0 mg/kg PO, 4 h post-carrageenan
  Change in Paw Volume: 1.45 ± 0.16 mL
Rat paw edema model [2]; Table 10, 1.0 mg/kg PO, 6 h post-carrageenan
  Change in Paw Volume: 1.62 ± 0.14 mL
Rat paw edema model [2]; Table 10, 3.0 mg/kg PO, 4 h post-carrageenan
  Change in Paw Volume: 1.42 ± 0.09 mL
Rat paw edema model [2]; Table 10, 3.0 mg/kg PO, 6 h post-carrageenan
  Change in Paw Volume: 1.50 ± 0.09 mL
Rat paw edema model [2]; Table 10, 10 mg/kg PO, 2 h post-carrageenan
  Change in Paw Volume: 1.17 ± 0.17 mL
Rat paw edema model [2]; Table 10, 10 mg/kg PO, 4 h post-carrageenan
  Change in Paw Volume: 1.29 ± 0.06 mL
Rat paw edema model [2]; Table 10, 10 mg/kg PO, 6 h post-carrageenan
  Change in Paw Volume: 1.51 ± 0.06 mL
